Target: T1, gp130 (Homo sapiens, UniProt P40189)
T1 construct: endogenous in cells; host or cells: SUM159 human breast cancer cells (lysate)
Experiment: Drug Affinity Responsive Target Stability (DARTS) assay in SUM159 lysates
Assay type: binding
Protocol: Human SUM159 breast cancer cells were lysed in cold radioimmunoprecipitation assay (RIPA) lysis buffer containing proteasome inhibitor cocktail and phosphatase inhibitor cocktail. Then lysates were incubated with escalating concentrations (10-1000 μM) of LLM418 or DMSO control at room temperature for 1 h. Proteolysis was followed by adding protease pronase solution at a ratio of 1 mg of pronase to 1000 mg (or 2000 mg) of lysate protein for 30 min, 20 min or 15 min at room temperature. To stop proteolysis, 4×SDS sample loading buffer was added at 1:3 ratio to each sample and boiled at 95° C. for 10 min. The resulted protein samples were separated by 8% SDS-PAGE gel and analyzed by western blotting. The DARTS assay is a method for studying the specific protein-ligand binding interactions. It is based on the principle that the target protein structure might be stabilized and become less susceptible to proteolysis by proteases upon drug binding [Lomenick B, Jung G, Wohlschlegel J, et al. Target identification using drug affinity responsive target stability (DARTS). Curr Protoc Chem Biol 2011, 3, 163-180; Lomenick B, Olsen R, Huang J. Identification of direct protein targets of small molecules. ACS Chem Biol. 2011, 6, 34-46]. It can be used to find the targeting protein of a small molecule by running SDS-gel without purifying any specific protein. […]

T1 sequence (P40189 23-918): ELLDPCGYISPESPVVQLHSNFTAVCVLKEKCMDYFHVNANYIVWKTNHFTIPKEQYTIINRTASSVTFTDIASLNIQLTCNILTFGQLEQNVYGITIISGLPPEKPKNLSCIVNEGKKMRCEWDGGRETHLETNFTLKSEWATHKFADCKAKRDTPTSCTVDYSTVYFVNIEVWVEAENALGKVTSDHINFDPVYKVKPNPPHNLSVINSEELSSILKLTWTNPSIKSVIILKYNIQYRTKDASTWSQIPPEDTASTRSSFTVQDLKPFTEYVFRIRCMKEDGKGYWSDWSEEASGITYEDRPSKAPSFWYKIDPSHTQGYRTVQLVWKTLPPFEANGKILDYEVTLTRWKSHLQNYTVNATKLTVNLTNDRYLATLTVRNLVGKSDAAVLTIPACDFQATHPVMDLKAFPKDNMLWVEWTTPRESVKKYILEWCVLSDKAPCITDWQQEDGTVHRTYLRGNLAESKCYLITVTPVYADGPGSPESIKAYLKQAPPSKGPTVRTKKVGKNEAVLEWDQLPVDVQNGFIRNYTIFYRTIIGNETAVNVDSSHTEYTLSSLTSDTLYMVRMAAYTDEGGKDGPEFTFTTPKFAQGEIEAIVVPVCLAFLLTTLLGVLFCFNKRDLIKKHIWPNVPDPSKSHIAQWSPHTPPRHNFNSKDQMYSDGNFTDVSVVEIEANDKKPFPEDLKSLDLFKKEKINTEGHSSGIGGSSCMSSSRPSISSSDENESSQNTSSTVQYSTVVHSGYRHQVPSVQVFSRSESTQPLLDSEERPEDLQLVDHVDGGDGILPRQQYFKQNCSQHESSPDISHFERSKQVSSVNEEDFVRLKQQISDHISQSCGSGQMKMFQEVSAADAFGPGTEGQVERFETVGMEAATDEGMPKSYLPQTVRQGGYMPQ

O=C(Nc1ccccc1-c1ccn[nH]1)c1ccc(OCCN2CCCCC2)cc1 [LLM418, N-(2-(1H-pyrazol-5-yl)phenyl)-4-(2-(piperidin-1-yl)ethoxy)benzamide]
abundance of gp130 compared with the no drug control (100 and 1000 μM): increased significantly | abundance of the gp130 band (protection from proteolysis) (SUM159 lysates, 10-1000 μM, pronase:protein=1:2000, 15 min): increased with an increasing dose

Reference: patent publication US11530181B2, “IL-6 inhibitors and methods of treatment” (University of Florida Research Foundation, Incorporated, priority 2018, dated 2022)
